In paper PMC7026418, “The kinase polypharmacology landscape of clinical PARP inhibitors” (Scientific Reports, 2020):
Like-named read-outs stand apart in the source and are kept apart here. Values belong to the compound of their own block, whether it stands above or below them.

Experiments:
Test in all cases: biochemical
Parameters in all cases: DiscoveRx KINOMEscan active site-directed competition binding; percent of control kinase bound to immobilised ligand
CSNK1G1 = CSNK1G1 (Homo sapiens, UniProt Q9HCP0)
Chain of CSNK1G1 (Q9HCP0 whole entry): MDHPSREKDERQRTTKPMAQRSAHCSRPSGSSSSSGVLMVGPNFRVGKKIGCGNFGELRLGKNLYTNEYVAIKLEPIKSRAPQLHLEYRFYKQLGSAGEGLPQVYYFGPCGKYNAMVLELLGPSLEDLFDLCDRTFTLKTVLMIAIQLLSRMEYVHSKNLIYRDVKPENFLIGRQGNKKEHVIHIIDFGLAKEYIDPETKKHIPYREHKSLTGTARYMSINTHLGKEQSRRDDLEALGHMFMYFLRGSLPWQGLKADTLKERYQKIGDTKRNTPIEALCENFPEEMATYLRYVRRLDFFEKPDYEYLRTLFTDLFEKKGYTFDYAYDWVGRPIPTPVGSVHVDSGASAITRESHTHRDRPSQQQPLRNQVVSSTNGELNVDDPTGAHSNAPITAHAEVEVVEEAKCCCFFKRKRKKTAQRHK

ABL1-phosphorylated = biological target: T1, ABL1-phosphorylated (Homo sapiens, UniProt P00519)
T1 construct: phosphorylated
T1 sequence (P00519 whole entry): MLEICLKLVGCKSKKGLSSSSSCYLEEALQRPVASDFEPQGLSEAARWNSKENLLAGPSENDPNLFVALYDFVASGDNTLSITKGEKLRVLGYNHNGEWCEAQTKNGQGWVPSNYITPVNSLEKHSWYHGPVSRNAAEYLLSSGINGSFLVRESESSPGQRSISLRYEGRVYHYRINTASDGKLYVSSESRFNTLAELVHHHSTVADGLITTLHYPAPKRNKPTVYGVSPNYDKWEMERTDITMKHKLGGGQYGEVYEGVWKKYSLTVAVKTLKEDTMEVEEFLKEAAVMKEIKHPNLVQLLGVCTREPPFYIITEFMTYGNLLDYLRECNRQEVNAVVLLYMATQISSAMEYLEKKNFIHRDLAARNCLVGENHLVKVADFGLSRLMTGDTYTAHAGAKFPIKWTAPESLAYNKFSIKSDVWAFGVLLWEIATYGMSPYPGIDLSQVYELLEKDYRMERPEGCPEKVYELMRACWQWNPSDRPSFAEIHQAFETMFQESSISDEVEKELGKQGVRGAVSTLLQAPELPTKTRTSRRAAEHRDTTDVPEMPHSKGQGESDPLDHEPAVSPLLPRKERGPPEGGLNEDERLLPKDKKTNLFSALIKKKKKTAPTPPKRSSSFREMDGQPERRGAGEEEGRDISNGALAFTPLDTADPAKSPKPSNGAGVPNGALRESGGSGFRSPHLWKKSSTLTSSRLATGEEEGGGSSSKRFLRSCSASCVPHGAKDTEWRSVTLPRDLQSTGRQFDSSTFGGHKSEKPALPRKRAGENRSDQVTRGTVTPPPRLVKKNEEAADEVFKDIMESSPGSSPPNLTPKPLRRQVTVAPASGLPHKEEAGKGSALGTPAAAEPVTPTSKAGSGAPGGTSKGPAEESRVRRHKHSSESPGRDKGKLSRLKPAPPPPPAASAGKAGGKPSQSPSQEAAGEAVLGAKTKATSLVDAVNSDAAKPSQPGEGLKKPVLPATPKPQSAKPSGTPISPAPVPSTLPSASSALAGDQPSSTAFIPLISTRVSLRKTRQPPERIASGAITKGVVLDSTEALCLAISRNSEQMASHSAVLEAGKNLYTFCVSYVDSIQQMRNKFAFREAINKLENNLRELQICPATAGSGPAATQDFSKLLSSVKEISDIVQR

[1] = biological target: T2, ABL1(E255K)-phosphorylated (Homo sapiens, UniProt P00519, E255K)
T2 construct: phosphorylated
T2 sequence (P00519 whole entry E255K): as the sequence (P00519 whole entry) above, with E255K counted along it

CSNK1G3 = CSNK1G3 (Homo sapiens, UniProt Q9Y6M4)
Chain of CSNK1G3 (Q9Y6M4 whole entry): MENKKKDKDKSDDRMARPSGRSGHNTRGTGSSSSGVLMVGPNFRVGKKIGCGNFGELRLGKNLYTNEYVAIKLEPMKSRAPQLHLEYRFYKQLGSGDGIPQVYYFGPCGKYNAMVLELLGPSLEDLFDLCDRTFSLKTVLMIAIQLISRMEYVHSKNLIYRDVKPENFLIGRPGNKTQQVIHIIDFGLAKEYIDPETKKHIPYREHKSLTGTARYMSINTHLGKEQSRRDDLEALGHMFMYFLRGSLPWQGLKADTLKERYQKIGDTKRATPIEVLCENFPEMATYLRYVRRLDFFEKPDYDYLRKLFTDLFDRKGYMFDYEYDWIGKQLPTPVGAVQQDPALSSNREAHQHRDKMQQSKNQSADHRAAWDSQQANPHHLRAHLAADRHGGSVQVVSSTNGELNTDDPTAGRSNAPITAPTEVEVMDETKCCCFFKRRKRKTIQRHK

STK16 = STK16 (Homo sapiens, UniProt O75716)
Chain of STK16 (O75716 whole entry): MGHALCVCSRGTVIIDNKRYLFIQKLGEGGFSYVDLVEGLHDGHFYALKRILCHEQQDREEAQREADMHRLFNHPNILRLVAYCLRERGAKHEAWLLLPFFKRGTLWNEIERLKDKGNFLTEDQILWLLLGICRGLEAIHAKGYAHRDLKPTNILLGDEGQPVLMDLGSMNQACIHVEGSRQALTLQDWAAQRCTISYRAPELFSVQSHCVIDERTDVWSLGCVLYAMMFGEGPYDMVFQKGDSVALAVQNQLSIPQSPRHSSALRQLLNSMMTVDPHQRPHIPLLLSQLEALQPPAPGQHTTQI

LATS1 = biological target: T3, LATS1 (Homo sapiens, UniProt O95835)
T3 sequence (O95835 1-1130): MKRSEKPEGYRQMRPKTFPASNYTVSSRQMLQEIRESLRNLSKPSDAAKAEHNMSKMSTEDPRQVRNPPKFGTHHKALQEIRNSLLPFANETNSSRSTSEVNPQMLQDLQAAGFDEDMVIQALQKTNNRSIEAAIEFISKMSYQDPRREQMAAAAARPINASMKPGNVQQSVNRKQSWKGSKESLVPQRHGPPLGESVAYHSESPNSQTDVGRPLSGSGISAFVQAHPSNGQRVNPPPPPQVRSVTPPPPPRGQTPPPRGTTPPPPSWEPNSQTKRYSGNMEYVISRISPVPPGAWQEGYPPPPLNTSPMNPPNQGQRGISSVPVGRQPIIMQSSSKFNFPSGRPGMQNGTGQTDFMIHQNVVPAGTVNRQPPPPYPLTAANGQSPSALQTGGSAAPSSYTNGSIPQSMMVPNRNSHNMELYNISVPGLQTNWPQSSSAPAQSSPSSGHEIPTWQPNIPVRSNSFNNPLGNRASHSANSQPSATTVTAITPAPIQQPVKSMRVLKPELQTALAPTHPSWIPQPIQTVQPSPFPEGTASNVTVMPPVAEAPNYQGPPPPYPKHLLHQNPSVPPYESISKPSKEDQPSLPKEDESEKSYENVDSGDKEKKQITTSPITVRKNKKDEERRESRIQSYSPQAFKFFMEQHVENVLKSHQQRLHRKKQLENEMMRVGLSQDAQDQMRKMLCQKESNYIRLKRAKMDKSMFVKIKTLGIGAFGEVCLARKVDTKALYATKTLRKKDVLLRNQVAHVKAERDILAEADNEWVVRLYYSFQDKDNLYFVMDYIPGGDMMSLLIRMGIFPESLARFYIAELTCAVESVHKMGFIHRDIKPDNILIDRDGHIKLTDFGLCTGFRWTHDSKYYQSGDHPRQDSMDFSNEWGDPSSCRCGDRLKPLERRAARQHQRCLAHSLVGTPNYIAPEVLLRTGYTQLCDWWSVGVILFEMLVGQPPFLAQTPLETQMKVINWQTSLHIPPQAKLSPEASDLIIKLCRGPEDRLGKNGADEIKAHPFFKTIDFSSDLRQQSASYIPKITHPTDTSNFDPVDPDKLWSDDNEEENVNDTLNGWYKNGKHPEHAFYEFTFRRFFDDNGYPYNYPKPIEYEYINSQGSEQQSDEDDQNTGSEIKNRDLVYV

SGK3 = biological target: T4, SGK3 (Homo sapiens, UniProt Q96BR1)
T4 sequence (Q96BR1 1-496): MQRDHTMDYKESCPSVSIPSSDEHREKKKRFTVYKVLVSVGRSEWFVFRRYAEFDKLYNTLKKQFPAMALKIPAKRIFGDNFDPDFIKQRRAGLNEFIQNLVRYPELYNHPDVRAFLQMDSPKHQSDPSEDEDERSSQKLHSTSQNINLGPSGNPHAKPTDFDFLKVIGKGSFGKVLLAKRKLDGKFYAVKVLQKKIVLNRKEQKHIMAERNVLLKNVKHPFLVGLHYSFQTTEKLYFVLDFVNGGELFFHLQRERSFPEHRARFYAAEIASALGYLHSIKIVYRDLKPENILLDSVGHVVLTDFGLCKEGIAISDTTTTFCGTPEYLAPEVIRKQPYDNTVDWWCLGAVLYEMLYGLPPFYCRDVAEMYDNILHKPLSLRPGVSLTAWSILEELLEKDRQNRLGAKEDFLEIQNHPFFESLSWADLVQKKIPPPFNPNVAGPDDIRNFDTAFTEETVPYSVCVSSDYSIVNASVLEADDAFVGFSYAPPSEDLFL

CAMK2G = CAMK2G (Homo sapiens, UniProt Q13555)
Chain of CAMK2G (Q13555 whole entry): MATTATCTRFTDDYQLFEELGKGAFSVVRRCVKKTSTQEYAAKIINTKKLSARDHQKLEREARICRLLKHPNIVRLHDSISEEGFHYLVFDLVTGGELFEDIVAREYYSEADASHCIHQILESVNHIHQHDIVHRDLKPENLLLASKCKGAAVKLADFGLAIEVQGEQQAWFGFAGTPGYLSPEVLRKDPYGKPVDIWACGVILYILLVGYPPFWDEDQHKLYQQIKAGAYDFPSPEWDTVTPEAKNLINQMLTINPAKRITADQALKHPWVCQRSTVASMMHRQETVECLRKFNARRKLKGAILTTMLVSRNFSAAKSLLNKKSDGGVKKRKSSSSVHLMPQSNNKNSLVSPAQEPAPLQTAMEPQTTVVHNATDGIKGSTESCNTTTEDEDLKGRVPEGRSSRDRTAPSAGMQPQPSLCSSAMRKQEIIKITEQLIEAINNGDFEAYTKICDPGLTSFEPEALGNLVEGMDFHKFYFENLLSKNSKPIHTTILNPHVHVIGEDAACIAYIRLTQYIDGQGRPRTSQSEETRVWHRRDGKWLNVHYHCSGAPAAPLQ

[2] = read-out: Niraparib (MK-4827) / %Ctrl @ 10000nM
[3] = read-out: Rucaparib / %Ctrl @ 10000nM, binding competition, % of control
[4] = read-out: Olaparib / %Ctrl @ 10000nM
[5] = read-out: Talazoparib (BMN 673) / %Ctrl @ 10000nM

Compound: NC(=O)c1cccc2cn(-c3ccc([C@@H]4CCCNC4)cc3)nc12 [Niraparib]
percent of control binding at 10 µM (CSNK1G1; [2]): 98%
percent of control binding at 10 µM (ABL1-phosphorylated; [2]): 80%
percent of control binding at 10 µM [1, 2]: 64%
percent of control binding at 10 µM (CSNK1G3; [2]): 85%
percent of control binding at 10 µM (STK16; [2]): 93%
percent of control binding at 10 µM (LATS1; [2]): 36%
percent of control binding at 10 µM (SGK3; [2]): 98%
percent of control binding at 10 µM (CAMK2G; [2]): 95%

percent of control binding at 10 µM (CSNK1G1; [3]): 93%
percent of control binding at 10 µM (ABL1-phosphorylated; [3]): 98%
percent of control binding at 10 µM [1, 3]: 91%
percent of control binding at 10 µM (CSNK1G3; [3]): 97%
percent of control binding at 10 µM (STK16; [3]): 100%
percent of control binding at 10 µM (LATS1; [3]): 75%
percent of control binding at 10 µM (SGK3; [3]): 38%
percent of control binding at 10 µM (CAMK2G; [3]): 83%
Compound: CNCc1ccc(-c2[nH]c3cc(F)cc4c3c2CCNC4=O)cc1 [Rucaparib]

percent of control binding at 10 µM (CSNK1G1; [4]): 97%
percent of control binding at 10 µM (ABL1-phosphorylated; [4]): 98%
percent of control binding at 10 µM [1, 4]: 89%
percent of control binding at 10 µM (CSNK1G3; [4]): 93%
percent of control binding at 10 µM (STK16; [4]): 83%
percent of control binding at 10 µM (LATS1; [4]): 78%
percent of control binding at 10 µM (SGK3; [4]): 79%
percent of control binding at 10 µM (CAMK2G; [4]): 100%
Compound: O=C(c1cc(Cc2n[nH]c(=O)c3ccccc23)ccc1F)N1CCN(C(=O)C2CC2)CC1 [Olaparib]

percent of control binding at 10 µM (CSNK1G1; [5]): 99%
percent of control binding at 10 µM (ABL1-phosphorylated; [5]): 100%
percent of control binding at 10 µM [1, 5]: 100%
percent of control binding at 10 µM (CSNK1G3; [5]): 88%
percent of control binding at 10 µM (STK16; [5]): 90%
percent of control binding at 10 µM (LATS1; [5]): 92%
percent of control binding at 10 µM (SGK3; [5]): 100%
percent of control binding at 10 µM (CAMK2G; [5]): 95%
Compound: Cn1ncnc1[C@H]1c2n[nH]c(=O)c3cc(F)cc(c23)N[C@@H]1c1ccc(F)cc1 [Talazoparib]
